{"source": "patent EP4635500A1", "about": "“THERAPEUTIC AGENT FOR BACTERIAL INFECTION” (Sumitomo Pharma Co., Ltd., priority 2022, dated 2024)", "system": "P. aeruginosa", "assay": "MIC, broth microdilution, CDC/FDA Antibiotic Resistance Isolate Bank (Example 7, Tables 10, 15)", "type": "cell-based", "settings": "Pseudomonas aeruginosa, read-out: MIC", "note": "Where two headings read alike, the source gives them in different places.", "data": [{"smiles": "CC(C)(O/N=C(\\C(=O)N[C@@H]1C(=O)N2C(C(=O)[O-])=C(C[N+]3(CCNC(=O)c4ccc(O)c(O)c4Cl)CCCC3)CS[C@H]12)c1csc(N)n1)C(=O)O", "note": "[Cefiderocol, cefiderocol]", "values": [{"measurement": "MIC", "setting": "P. aeruginosa KUB No. 5666, AR Bank # 23", "result": 120, "unit": "ng/mL"}, {"measurement": "MIC", "setting": "P. aeruginosa KUB No. 5667, AR Bank # 234", "result": 250, "unit": "ng/mL"}, {"measurement": "MIC", "setting": "P. aeruginosa KUB No. 5668, AR Bank # 235", "result": 1000, "unit": "ng/mL"}, {"measurement": "MIC", "setting": "P. aeruginosa KUB No. 5669, AR Bank # 236", "result": 250, "unit": "ng/mL"}, {"measurement": "MIC", "setting": "P. aeruginosa KUB No. 5670, AR Bank # 237", "result": 250, "unit": "ng/mL"}, {"measurement": "MIC", "setting": "P. aeruginosa KUB No. 5671, AR Bank # 238", "result": 1000, "unit": "ng/mL"}, {"measurement": "MIC", "setting": "P. aeruginosa KUB No. 5672, AR Bank # 239", "result": 2000, "unit": "ng/mL"}, {"measurement": "MIC", "setting": "P. aeruginosa KUB No. 5673, AR Bank # 240", "result": 1000, "unit": "ng/mL"}, {"measurement": "MIC", "setting": "P. aeruginosa KUB No. 5674, AR Bank # 241", "result": 250, "unit": "ng/mL"}, {"measurement": "MIC", "setting": "P. aeruginosa KUB No. 5675, AR Bank # 242", "result": 500, "unit": "ng/mL"}, {"measurement": "MIC", "setting": "P. aeruginosa KUB No. 5676, AR Bank # 243", "result": 500, "unit": "ng/mL"}, {"measurement": "MIC", "setting": "P. aeruginosa KUB No. 5677, AR Bank # 244", "result": 250, "unit": "ng/mL"}, {"measurement": "MIC", "setting": "P. aeruginosa KUB No. 5678, AR Bank # 245", "result": 250, "unit": "ng/mL"}, {"measurement": "MIC", "setting": "P. aeruginosa KUB No. 5679, AR Bank # 246", "result": 4000, "unit": "ng/mL"}, {"measurement": "MIC", "setting": "P. aeruginosa KUB No. 5680, AR Bank # 247", "result": 120, "unit": "ng/mL"}, {"measurement": "MIC", "setting": "P. aeruginosa KUB No. 5681, AR Bank # 248", "result": 500, "unit": "ng/mL"}, {"measurement": "MIC", "setting": "P. aeruginosa KUB No. 5682, AR Bank # 249", "result": 500, "unit": "ng/mL"}, {"measurement": "MIC", "setting": "P. aeruginosa KUB No. 5684, AR Bank # 251", "result": 120, "unit": "ng/mL"}, {"measurement": "MIC", "setting": "P. aeruginosa KUB No. 5685, AR Bank # 252", "result": 2000, "unit": "ng/mL"}, {"measurement": "MIC", "setting": "P. aeruginosa KUB No. 5686, AR Bank # 253", "result": 120, "unit": "ng/mL"}, {"measurement": "MIC", "setting": "P. aeruginosa KUB No. 5687, AR Bank # 254", "result": 500, "unit": "ng/mL"}, {"measurement": "MIC", "setting": "P. aeruginosa KUB No. 5688, AR Bank # 255", "result": 250, "unit": "ng/mL"}, {"measurement": "MIC", "setting": "P. aeruginosa KUB No. 5689, AR Bank # 256", "result": 2000, "unit": "ng/mL"}, {"measurement": "MIC", "setting": "P. aeruginosa KUB No. 5690, AR Bank # 257", "result": 250, "unit": "ng/mL"}, {"measurement": "MIC", "setting": "P. aeruginosa KUB No. 5691, AR Bank # 258", "result": 250, "unit": "ng/mL"}, {"measurement": "MIC", "setting": "P. aeruginosa KUB No. 5692, AR Bank # 259", "result": 120, "unit": "ng/mL"}, {"measurement": "MIC", "setting": "P. aeruginosa KUB No. 5693, AR Bank # 260", "result": 250, "unit": "ng/mL"}, {"measurement": "MIC", "setting": "P. aeruginosa KUB No. 5694, AR Bank # 261", "result": "≤ 60", "unit": "ng/mL"}, {"measurement": "MIC", "setting": "P. aeruginosa KUB No. 5695, AR Bank # 262", "result": 120, "unit": "ng/mL"}, {"measurement": "MIC", "setting": "P. aeruginosa KUB No. 5696, AR Bank # 263", "result": 120, "unit": "ng/mL"}, {"measurement": "MIC", "setting": "P. aeruginosa KUB No. 5697, AR Bank # 264", "result": 250, "unit": "ng/mL"}, {"measurement": "MIC", "setting": "P. aeruginosa KUB No. 5698, AR Bank # 265", "result": 500, "unit": "ng/mL"}, {"measurement": "MIC", "setting": "P. aeruginosa KUB No. 5699, AR Bank # 266", "result": 500, "unit": "ng/mL"}, {"measurement": "MIC", "setting": "P. aeruginosa KUB No. 5700, AR Bank # 267", "result": 120, "unit": "ng/mL"}, {"measurement": "MIC", "setting": "P. aeruginosa KUB No. 5701, AR Bank # 268", "result": 250, "unit": "ng/mL"}, {"measurement": "MIC", "setting": "P. aeruginosa KUB No. 5702, AR Bank # 269", "result": 1000, "unit": "ng/mL"}, {"measurement": "MIC", "setting": "P. aeruginosa KUB No. 5703, AR Bank # 270", "result": 250, "unit": "ng/mL"}, {"measurement": "MIC", "setting": "P. aeruginosa KUB No. 5704, AR Bank # 271", "result": 250, "unit": "ng/mL"}, {"measurement": "MIC", "setting": "P. aeruginosa KUB No. 5705, AR Bank # 272", "result": 250, "unit": "ng/mL"}, {"measurement": "MIC", "setting": "P. aeruginosa KUB No. 5747, AR Bank # 351", "result": 250, "unit": "ng/mL"}, {"measurement": "MIC", "setting": "P. aeruginosa KUB No. 5748, AR Bank # 352", "result": 500, "unit": "ng/mL"}, {"measurement": "MIC", "setting": "P. aeruginosa KUB No. 5749, AR Bank # 353", "result": 1000, "unit": "ng/mL"}, {"measurement": "MIC", "setting": "P. aeruginosa KUB No. 5750, AR Bank # 354", "result": 500, "unit": "ng/mL"}, {"measurement": "MIC", "setting": "P. aeruginosa KUB No. 5751, AR Bank # 355", "result": 250, "unit": "ng/mL"}, {"measurement": "MIC", "setting": "P. aeruginosa KUB No. 5752, AR Bank # 356", "result": 1000, "unit": "ng/mL"}, {"measurement": "MIC", "setting": "P. aeruginosa KUB No. 5753, AR Bank # 357", "result": 4000, "unit": "ng/mL"}, {"measurement": "MIC", "setting": "P. aeruginosa KUB No. 5754, AR Bank # 358", "result": 500, "unit": "ng/mL"}, {"measurement": "MIC", "setting": "P. aeruginosa KUB No. 5755, AR Bank # 359", "result": 250, "unit": "ng/mL"}, {"measurement": "MIC", "setting": "P. aeruginosa KUB No. 5756, AR Bank # 360", "result": 250, "unit": "ng/mL"}, {"measurement": "MIC", "setting": "P. aeruginosa KUB No. 5785, AR Bank # 439", "result": 500, "unit": "ng/mL"}, {"measurement": "MIC", "setting": "P. aeruginosa KUB No. 5786, AR Bank # 440", "result": 250, "unit": "ng/mL"}, {"measurement": "MIC", "setting": "P. aeruginosa KUB No. 5787, AR Bank # 441", "result": 1000, "unit": "ng/mL"}, {"measurement": "MIC", "setting": "P. aeruginosa KUB No. 5788, AR Bank # 443", "result": 1000, "unit": "ng/mL"}, {"measurement": "MIC", "setting": "P. aeruginosa KUB No. 5789, AR Bank # 444", "result": 500, "unit": "ng/mL"}, {"measurement": "MIC", "setting": "P. aeruginosa KUB No. 5790, AR Bank # 445", "result": 500, "unit": "ng/mL"}, {"measurement": "MIC", "setting": "P. aeruginosa KUB No. 5793, AR Bank # 449", "result": 500, "unit": "ng/mL"}, {"measurement": "MIC", "setting": "P. aeruginosa KUB No. 5798, AR Bank # 455", "result": 250, "unit": "ng/mL"}, {"measurement": "MIC", "setting": "P. aeruginosa KUB No. 5799, AR Bank # 456", "result": 250, "unit": "ng/mL"}, {"measurement": "MIC", "setting": "P. aeruginosa KUB No. 5800, AR Bank # 457", "result": 250, "unit": "ng/mL"}, {"measurement": "MIC", "setting": "P. aeruginosa KUB No. 5801, AR Bank # 458", "result": 2000, "unit": "ng/mL"}, {"measurement": "MIC", "setting": "P. aeruginosa KUB No. 5802, AR Bank # 459", "result": 120, "unit": "ng/mL"}, {"measurement": "MIC", "setting": "P. aeruginosa KUB No. 5804, AR Bank # 862", "result": 500, "unit": "ng/mL"}, {"measurement": "MIC", "setting": "P. aeruginosa KUB No. 5805, AR Bank # 863", "result": 500, "unit": "ng/mL"}, {"measurement": "MIC", "setting": "P. aeruginosa KUB No. 5806, AR Bank # 864", "result": 120, "unit": "ng/mL"}, {"measurement": "MIC", "setting": "P. aeruginosa KUB No. 5813, AR Bank # 508", "result": 1, "unit": "ng/mL"}, {"measurement": "MIC", "setting": "P. aeruginosa KUB No. 5814, AR Bank # 509", "result": 0.5, "unit": "ng/mL"}, {"measurement": "MIC", "setting": "P. aeruginosa KUB No. 5815, AR Bank # 510", "result": "≤ 0.06", "unit": "ng/mL"}, {"measurement": "MIC", "setting": "P. aeruginosa KUB No. 5816, AR Bank # 511", "result": 0.25, "unit": "ng/mL"}, {"measurement": "MIC", "setting": "P. aeruginosa KUB No. 5817, AR Bank # 512", "result": 1, "unit": "ng/mL"}, {"measurement": "MIC", "setting": "P. aeruginosa KUB No. 5818, AR Bank # 513", "result": 0.25, "unit": "ng/mL"}, {"measurement": "MIC", "setting": "P. aeruginosa KUB No. 5819, AR Bank # 514", "result": 0.12, "unit": "ng/mL"}, {"measurement": "MIC", "setting": "P. aeruginosa KUB No. 5820, AR Bank # 515", "result": 1, "unit": "ng/mL"}, {"measurement": "MIC", "setting": "P. aeruginosa KUB No. 5821, AR Bank # 516", "result": 0.5, "unit": "ng/mL"}, {"measurement": "MIC", "setting": "P. aeruginosa KUB No. 5823, AR Bank # 518", "result": 0.25, "unit": "ng/mL"}, {"measurement": "MIC", "setting": "P. aeruginosa KUB No. 5831, AR Bank # 526", "result": 0.12, "unit": "ng/mL"}, {"measurement": "MIC", "setting": "P. aeruginosa KUB No. 5832, AR Bank # 527", "result": 0.25, "unit": "ng/mL"}, {"measurement": "MIC", "setting": "P. aeruginosa KUB No. 5833, AR Bank # 528", "result": 0.25, "unit": "ng/mL"}, {"measurement": "MIC", "setting": "P. aeruginosa KUB No. 5834, AR Bank # 529", "result": "≤ 0.06", "unit": "ng/mL"}]}]}
